Tested on: not listed separately
Assay: Cytotoxicity against human Huh7.5 cells after 96 hrs by MTT assay
Assay type: cell-based, Huh-7
Conditions: not given

Row | SMILES | CC50 at 96 h [µM]
1 | COc1cc(NCc2ccc(OC)c(OC)c2OC)ccc1-c1cnco1 | 32
2 | COc1cc(NCc2cc3ccccc3s2)ccc1-c1cnco1 | 29
3 | COc1ccc(-c2cnco2)cc1NCc1cccs1 | > 100
4 | COc1cc(/N=C/c2ccncc2)ccc1-c1cnco1 | > 100
5 | COc1cc(/N=C/c2ccc(F)cc2)ccc1-c1cnco1 | > 100
6 | COc1cc(NCc2csc3ccccc23)ccc1-c1cnco1 | 23.6
7 | COc1ccc2[nH]cc(CNc3ccc(-c4cnco4)c(OC)c3)c2c1 | > 100
8 | CCc1ccc(CNc2ccc(-c3cnco3)c(OC)c2)s1 | 39.1
9 | COc1cc(NCc2ccc(-c3ccccc3)s2)ccc1-c1cnco1 | 26
10 | COc1c(C)c2c(c(O)c1C/C=C(\C)CCC(=O)O)C(=O)OC2 [MYCOPHENOLIC ACID] | > 100
11 | COc1cc(NCc2cccs2)ccc1-c1cnco1 | 51.3
12 | COc1cc(NCc2ccc(Cl)s2)ccc1-c1cnco1 | 43.2
13 | COc1ccc(O)c(CNc2ccc(-c3cnco3)c(OC)c2)c1 | > 100
14 | COc1cc(NCc2ccc(Br)s2)ccc1-c1cnco1 | 39.4
15 | COc1cc(NCc2cncs2)ccc1-c1cnco1 | 68.9
16 | COc1cc(/N=C/c2cccs2)ccc1-c1cnco1 | > 100
17 | COc1ccc(CNc2ccc(-c3cnco3)c(OC)c2)cn1 | 56.8

Tested on: Hepatitis C virus
Assay: Antiviral activity against HCV expressing pFL-J6/JFH/JC1 infected in human Huh7.5 cells assessed as inhibition of viral RNA synthesis after 96 hrs by one-step RT-PCR analysis
Assay type: functional, organism-based, Hepacivirus hominis
Conditions: Huh-7, 96 h

Row | SMILES | IC50 [µM]
18 | COc1cc(NCc2ccc(OC)c(OC)c2OC)ccc1-c1cnco1 | 0.66
19 | COc1cc(NCc2cc3ccccc3s2)ccc1-c1cnco1 | 0.5
20 | COc1ccc(-c2cnco2)cc1NCc1cccs1 | 3.08
21 | COc1cc(/N=C/c2ccncc2)ccc1-c1cnco1 | 1.61
22 | COc1cc(/N=C/c2ccc(F)cc2)ccc1-c1cnco1 | 1.18
23 | COc1cc(NCc2csc3ccccc23)ccc1-c1cnco1 | > 1.24
24 | COc1ccc2[nH]cc(CNc3ccc(-c4cnco4)c(OC)c3)c2c1 | 0.82
25 | CCc1ccc(CNc2ccc(-c3cnco3)c(OC)c2)s1 | 1.98
26 | COc1cc(NCc2ccc(-c3ccccc3)s2)ccc1-c1cnco1 | 0.92
27 | COc1c(C)c2c(c(O)c1C/C=C(\C)CCC(=O)O)C(=O)OC2 [MYCOPHENOLIC ACID] | 4.16
28 | COc1cc(NCc2cccs2)ccc1-c1cnco1 | 0.28
29 | COc1cc(NCc2ccc(Cl)s2)ccc1-c1cnco1 | 0.33
30 | COc1ccc(O)c(CNc2ccc(-c3cnco3)c(OC)c2)c1 | 9.95
31 | COc1cc(NCc2ccc(Br)s2)ccc1-c1cnco1 | > 3.75
32 | COc1cc(NCc2cncs2)ccc1-c1cnco1 | 0.73
33 | COc1cc(/N=C/c2cccs2)ccc1-c1cnco1 | 5.72
34 | COc1ccc(CNc2ccc(-c3cnco3)c(OC)c2)cn1 | 3.25

Tested on: not listed separately
Assay: Selectivity index, ratio of CC50 for human Huh7.5 cells to IC50 for HCV expressing pFL-J6/JFH/JC1
Assay type: functional, Huh-7
Conditions: not given

Row | SMILES | Ratio CC50/IC50
35 | COc1cc(NCc2ccc(OC)c(OC)c2OC)ccc1-c1cnco1 | 48.4
36 | COc1cc(NCc2cc3ccccc3s2)ccc1-c1cnco1 | 57.9
37 | COc1ccc(-c2cnco2)cc1NCc1cccs1 | >32.5
38 | COc1cc(/N=C/c2ccncc2)ccc1-c1cnco1 | >62.1
39 | COc1cc(/N=C/c2ccc(F)cc2)ccc1-c1cnco1 | >84.8
40 | COc1cc(NCc2csc3ccccc23)ccc1-c1cnco1 | <19.1
41 | COc1ccc2[nH]cc(CNc3ccc(-c4cnco4)c(OC)c3)c2c1 | >122
42 | CCc1ccc(CNc2ccc(-c3cnco3)c(OC)c2)s1 | 19.8
43 | COc1cc(NCc2ccc(-c3ccccc3)s2)ccc1-c1cnco1 | 28.3
44 | COc1c(C)c2c(c(O)c1C/C=C(\C)CCC(=O)O)C(=O)OC2 [MYCOPHENOLIC ACID] | >24
45 | COc1cc(NCc2cccs2)ccc1-c1cnco1 | 183.3
46 | COc1cc(NCc2ccc(Cl)s2)ccc1-c1cnco1 | 130.8
47 | COc1ccc(O)c(CNc2ccc(-c3cnco3)c(OC)c2)c1 | >10.1
48 | COc1cc(NCc2ccc(Br)s2)ccc1-c1cnco1 | <10.5
49 | COc1cc(NCc2cncs2)ccc1-c1cnco1 | 94.4
50 | COc1cc(/N=C/c2cccs2)ccc1-c1cnco1 | >17.5
51 | COc1ccc(CNc2ccc(-c3cnco3)c(OC)c2)cn1 | 17.5

Tested on: not listed separately
Assay: Cytotoxicity against african green monkey Vero cells after 96 hrs by MTT assay
Assay type: cell-based
Conditions: chlorocebus sabaeus

Row | SMILES | CC50 at 96 h [µM]
52 | COc1cc(NCc2ccc(OC)c(OC)c2OC)ccc1-c1cnco1 | 28.8
53 | COc1cc(NCc2cc3ccccc3s2)ccc1-c1cnco1 | 7.36
54 | COc1ccc(-c2cnco2)cc1NCc1cccs1 | 53.8
55 | COc1cc(/N=C/c2ccncc2)ccc1-c1cnco1 | 239
56 | COc1cc(/N=C/c2ccc(F)cc2)ccc1-c1cnco1 | 324
57 | COc1cc(NCc2csc3ccccc23)ccc1-c1cnco1 | 12.7
58 | COc1ccc2[nH]cc(CNc3ccc(-c4cnco4)c(OC)c3)c2c1 | 36.7
59 | CCc1ccc(CNc2ccc(-c3cnco3)c(OC)c2)s1 | 13.6
60 | COc1cc(NCc2ccc(-c3ccccc3)s2)ccc1-c1cnco1 | 6.82
61 | COc1c(C)c2c(c(O)c1C/C=C(\C)CCC(=O)O)C(=O)OC2 [MYCOPHENOLIC ACID] | 624
62 | COc1cc(NCc2cccs2)ccc1-c1cnco1 | 17.9
63 | COc1cc(NCc2ccc(Cl)s2)ccc1-c1cnco1 | 53.8
64 | COc1ccc(O)c(CNc2ccc(-c3cnco3)c(OC)c2)c1 | 98.2
65 | COc1cc(NCc2ccc(Br)s2)ccc1-c1cnco1 | 47.3
66 | COc1cc(NCc2cncs2)ccc1-c1cnco1 | 232
67 | COc1cc(/N=C/c2cccs2)ccc1-c1cnco1 | 406
68 | COc1ccc(CNc2ccc(-c3cnco3)c(OC)c2)cn1 | 371

Tested on: Coxsackievirus B3
Assay: Antiviral activity against Coxsackie B3 virus Nancy in african green monkey Vero cells assessed as inhibition virus-induced cytopathic effect after 48 hrs
Assay type: functional, organism-based
Conditions: Enterovirus B

Row | SMILES | IC50 [µM]
69 | COc1cc(NCc2ccc(OC)c(OC)c2OC)ccc1-c1cnco1 | 0.73
70 | COc1cc(NCc2cc3ccccc3s2)ccc1-c1cnco1 | 1.39
71 | COc1ccc(-c2cnco2)cc1NCc1cccs1 | 25.9
72 | COc1cc(/N=C/c2ccncc2)ccc1-c1cnco1 | 34.9
73 | COc1cc(/N=C/c2ccc(F)cc2)ccc1-c1cnco1 | 43.3
74 | COc1cc(NCc2csc3ccccc23)ccc1-c1cnco1 | 1.87
75 | COc1ccc2[nH]cc(CNc3ccc(-c4cnco4)c(OC)c3)c2c1 | > 7.07
76 | CCc1ccc(CNc2ccc(-c3cnco3)c(OC)c2)s1 | 2
77 | COc1cc(NCc2ccc(-c3ccccc3)s2)ccc1-c1cnco1 | 2.26
78 | COc1c(C)c2c(c(O)c1C/C=C(\C)CCC(=O)O)C(=O)OC2 [MYCOPHENOLIC ACID] | 10.2
79 | COc1cc(NCc2cccs2)ccc1-c1cnco1 | 0.94
80 | COc1cc(NCc2ccc(Cl)s2)ccc1-c1cnco1 | 1.37
81 | COc1ccc(O)c(CNc2ccc(-c3cnco3)c(OC)c2)c1 | 9.96
82 | COc1cc(NCc2ccc(Br)s2)ccc1-c1cnco1 | 5.14
83 | COc1cc(NCc2cncs2)ccc1-c1cnco1 | 19.6
84 | COc1cc(/N=C/c2cccs2)ccc1-c1cnco1 | 101
85 | COc1ccc(CNc2ccc(-c3cnco3)c(OC)c2)cn1 | 6.03

Tested on: not listed separately
Assay: Selectivity index, ratio of CC50 for african green monkey Vero cells to IC50 for Coxsackie B3 virus Nancy
Assay type: functional
Conditions: not given

Row | SMILES | Ratio CC50/IC50
86 | COc1cc(NCc2ccc(OC)c(OC)c2OC)ccc1-c1cnco1 | 39.5
87 | COc1cc(NCc2cc3ccccc3s2)ccc1-c1cnco1 | 5.3
88 | COc1ccc(-c2cnco2)cc1NCc1cccs1 | 2.1
89 | COc1cc(/N=C/c2ccncc2)ccc1-c1cnco1 | 6.8
90 | COc1cc(/N=C/c2ccc(F)cc2)ccc1-c1cnco1 | 7.5
91 | COc1cc(NCc2csc3ccccc23)ccc1-c1cnco1 | 6.8
92 | CCc1ccc(CNc2ccc(-c3cnco3)c(OC)c2)s1 | 6.8
93 | COc1cc(NCc2ccc(-c3ccccc3)s2)ccc1-c1cnco1 | 3
94 | COc1c(C)c2c(c(O)c1C/C=C(\C)CCC(=O)O)C(=O)OC2 [MYCOPHENOLIC ACID] | 61.5
95 | COc1cc(NCc2cccs2)ccc1-c1cnco1 | 19.1
96 | COc1cc(NCc2ccc(Cl)s2)ccc1-c1cnco1 | 39.3
97 | COc1ccc(O)c(CNc2ccc(-c3cnco3)c(OC)c2)c1 | 9.9
98 | COc1cc(NCc2ccc(Br)s2)ccc1-c1cnco1 | 9.2
99 | COc1cc(NCc2cncs2)ccc1-c1cnco1 | 11.8
100 | COc1cc(/N=C/c2cccs2)ccc1-c1cnco1 | 4
101 | COc1ccc(CNc2ccc(-c3cnco3)c(OC)c2)cn1 | 61.5

Tested on: Coxsackievirus B6
Assay: Antiviral activity against Coxsackie B6 virus Schmitt in african green monkey Vero cells assessed as inhibition virus-induced cytopathic effect after 48 hrs
Assay type: functional, organism-based
Conditions: Enterovirus B

Row | SMILES | IC50 [µM]
102 | COc1cc(NCc2ccc(OC)c(OC)c2OC)ccc1-c1cnco1 | 1.7
103 | COc1cc(NCc2cc3ccccc3s2)ccc1-c1cnco1 | 1.07
104 | COc1ccc(-c2cnco2)cc1NCc1cccs1 | 11.3
105 | COc1cc(/N=C/c2ccncc2)ccc1-c1cnco1 | 15.3
106 | COc1cc(/N=C/c2ccc(F)cc2)ccc1-c1cnco1 | 58.2
107 | COc1cc(NCc2csc3ccccc23)ccc1-c1cnco1 | 2.43
108 | COc1ccc2[nH]cc(CNc3ccc(-c4cnco4)c(OC)c3)c2c1 | > 7.07
109 | CCc1ccc(CNc2ccc(-c3cnco3)c(OC)c2)s1 | 4.55
110 | COc1cc(NCc2ccc(-c3ccccc3)s2)ccc1-c1cnco1 | 0.75
111 | COc1c(C)c2c(c(O)c1C/C=C(\C)CCC(=O)O)C(=O)OC2 [MYCOPHENOLIC ACID] | 69.4
112 | COc1cc(NCc2cccs2)ccc1-c1cnco1 | 1.54
113 | COc1cc(NCc2ccc(Cl)s2)ccc1-c1cnco1 | 0.84
114 | COc1ccc(O)c(CNc2ccc(-c3cnco3)c(OC)c2)c1 | 22.7
115 | COc1cc(NCc2ccc(Br)s2)ccc1-c1cnco1 | 1.2
116 | COc1cc(NCc2cncs2)ccc1-c1cnco1 | 11.3
117 | COc1cc(/N=C/c2cccs2)ccc1-c1cnco1 | 45.1
118 | COc1ccc(CNc2ccc(-c3cnco3)c(OC)c2)cn1 | 10.1

Tested on: not listed separately
Assay: Selectivity index, ratio of CC50 for african green monkey Vero cells to IC50 for Coxsackie B3 virus Schmitt
Assay type: functional
Conditions: not given

Row | SMILES | Ratio CC50/IC50
119 | COc1cc(NCc2ccc(OC)c(OC)c2OC)ccc1-c1cnco1 | 17
120 | COc1cc(NCc2cc3ccccc3s2)ccc1-c1cnco1 | 6.9
121 | COc1ccc(-c2cnco2)cc1NCc1cccs1 | 4.8
122 | COc1cc(/N=C/c2ccncc2)ccc1-c1cnco1 | 15.6
123 | COc1cc(/N=C/c2ccc(F)cc2)ccc1-c1cnco1 | 5.6
124 | COc1cc(NCc2csc3ccccc23)ccc1-c1cnco1 | 5.2
125 | CCc1ccc(CNc2ccc(-c3cnco3)c(OC)c2)s1 | 3
126 | COc1cc(NCc2ccc(-c3ccccc3)s2)ccc1-c1cnco1 | 9.1
127 | COc1c(C)c2c(c(O)c1C/C=C(\C)CCC(=O)O)C(=O)OC2 [MYCOPHENOLIC ACID] | 9
128 | COc1cc(NCc2cccs2)ccc1-c1cnco1 | 11.7
129 | COc1cc(NCc2ccc(Cl)s2)ccc1-c1cnco1 | 64
130 | COc1ccc(O)c(CNc2ccc(-c3cnco3)c(OC)c2)c1 | 4.3
131 | COc1cc(NCc2ccc(Br)s2)ccc1-c1cnco1 | 39.4
132 | COc1cc(NCc2cncs2)ccc1-c1cnco1 | 20.5
133 | COc1cc(/N=C/c2cccs2)ccc1-c1cnco1 | 9
134 | COc1ccc(CNc2ccc(-c3cnco3)c(OC)c2)cn1 | 36.7

From ChEMBL document CHEMBL2434925, “Synthesis and antiviral activity of a novel class of (5-oxazolyl)phenyl amines” (Eur J Med Chem, 2013)
